Biological target: T1, integrin αIIbβ3 (Homo sapiens, UniProt P05106+P08514)
T1 construct: gene ITGA2B; Purified human integrin αIIbβ3; with integrin β3 (ITGB3, P05106)
Assay: ELISA: inhibition of purified human αIIbβ[…] binding to immobilized fibrinogen

T1 sequence (P08514 32-887): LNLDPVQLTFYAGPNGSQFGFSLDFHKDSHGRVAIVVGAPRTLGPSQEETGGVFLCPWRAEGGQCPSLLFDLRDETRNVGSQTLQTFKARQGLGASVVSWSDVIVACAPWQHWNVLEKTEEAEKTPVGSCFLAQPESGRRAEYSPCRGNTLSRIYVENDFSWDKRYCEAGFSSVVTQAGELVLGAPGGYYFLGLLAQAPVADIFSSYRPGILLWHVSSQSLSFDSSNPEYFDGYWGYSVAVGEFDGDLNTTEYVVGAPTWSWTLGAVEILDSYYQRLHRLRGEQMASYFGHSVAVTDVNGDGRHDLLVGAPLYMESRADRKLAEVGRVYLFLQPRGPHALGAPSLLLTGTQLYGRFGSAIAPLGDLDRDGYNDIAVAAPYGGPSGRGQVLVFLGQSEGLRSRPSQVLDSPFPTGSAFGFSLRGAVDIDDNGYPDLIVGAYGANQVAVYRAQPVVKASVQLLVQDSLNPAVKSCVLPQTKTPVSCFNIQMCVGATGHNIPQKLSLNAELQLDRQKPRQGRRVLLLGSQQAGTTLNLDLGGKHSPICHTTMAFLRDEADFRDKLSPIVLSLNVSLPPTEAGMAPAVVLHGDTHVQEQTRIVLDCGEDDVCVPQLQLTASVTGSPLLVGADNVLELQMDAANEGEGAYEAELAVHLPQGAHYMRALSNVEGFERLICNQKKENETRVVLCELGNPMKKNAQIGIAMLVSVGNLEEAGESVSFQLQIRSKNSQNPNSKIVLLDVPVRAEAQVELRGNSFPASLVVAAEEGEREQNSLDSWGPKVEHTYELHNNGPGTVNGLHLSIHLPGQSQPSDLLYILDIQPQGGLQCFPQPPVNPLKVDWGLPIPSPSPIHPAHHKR
T1 sequence (P08514 891-1039): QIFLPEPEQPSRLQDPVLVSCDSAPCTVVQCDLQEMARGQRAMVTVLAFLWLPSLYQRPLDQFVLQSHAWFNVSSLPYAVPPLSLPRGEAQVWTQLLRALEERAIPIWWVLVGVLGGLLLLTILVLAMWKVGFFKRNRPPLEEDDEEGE
T1 sequence (P05106 27-788): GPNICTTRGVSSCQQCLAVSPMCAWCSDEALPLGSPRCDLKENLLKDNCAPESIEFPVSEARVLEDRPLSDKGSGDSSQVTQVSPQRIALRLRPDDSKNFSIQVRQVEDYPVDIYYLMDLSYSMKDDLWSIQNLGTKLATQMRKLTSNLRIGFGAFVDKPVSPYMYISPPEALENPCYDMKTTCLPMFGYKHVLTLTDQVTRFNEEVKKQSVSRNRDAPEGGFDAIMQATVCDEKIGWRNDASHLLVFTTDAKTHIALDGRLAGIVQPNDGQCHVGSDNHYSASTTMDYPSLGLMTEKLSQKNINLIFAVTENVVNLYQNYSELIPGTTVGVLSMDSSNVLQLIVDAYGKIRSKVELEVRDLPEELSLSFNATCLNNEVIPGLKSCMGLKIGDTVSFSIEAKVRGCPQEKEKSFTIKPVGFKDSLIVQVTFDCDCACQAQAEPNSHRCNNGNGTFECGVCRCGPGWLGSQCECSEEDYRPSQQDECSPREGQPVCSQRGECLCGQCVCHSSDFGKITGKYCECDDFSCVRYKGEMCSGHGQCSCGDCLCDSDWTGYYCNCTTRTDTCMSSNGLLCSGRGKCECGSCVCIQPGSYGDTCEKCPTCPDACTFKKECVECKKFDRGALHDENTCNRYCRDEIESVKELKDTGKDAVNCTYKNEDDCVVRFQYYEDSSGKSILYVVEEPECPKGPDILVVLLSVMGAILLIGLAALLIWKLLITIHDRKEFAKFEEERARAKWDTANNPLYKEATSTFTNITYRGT

## COc1ccc(S(=O)(=O)NC(Cc2ccc3cc(OCCN4CCNCC4)ccc3c2)C(=O)O)cc1 (stereo not shown) [ANTP266, 2-((4-methoxyphenyl)sulfonamido)-3-(6-(2-(piperazin-1-yl)ethoxy)naphthalene-2-yl) propanoic acid]
  IC50: 370 nM

Source: PMC6121621, “A Short Half-Life αIIbβ3 Antagonist ANTP266 Reduces Thrombus Formation” (International Journal of Molecular Sciences, 2018)
